Series [1] deals with T1, longitudinal muscle from the intact ileum of guinea-pigs (response to histamine) (Cavia porcellus, UniProt P31389).
T1 construct: The longitudinal muscle was isolated from the intact ileum of guinea-pigs; from tissue; host or cells: longitudinal muscle of guinea-pig ileum (Hartley, male)
Kind of series: In vitro antihistaminic activity (inhibition of histamine concentration-response in isolated ileum longitudinal muscle). More on the design: species or system guinea-pigs (Hartley, male). The note with it: negative log of the concentration which gives a significant antihistaminic effect; guinea-pig ileum longitudinal muscle; one hour incubation with test compound; Arunlakshana and Schild method; read-out: pA2 (converted). The method, then: In vitro antihistaminic activity: The longitudinal muscle was isolated from the intact ileum of guinea-pigs (Hartley, male, 250-400 g) and placed in an organ bath under 300 mg tension. After one hour of equilibration, cumulative concentration-response curves (Van Rossum, J. M., Arch. Int. Pharmacodyn. Ther. 143, 299-330, 1963) to histamine were obtained. Following washing, the tissues were incubated for one hour with the test compound and then a second histamine concentration-response curve was run. Antihistaminic activity was determined as pA2 values by the method of Arunlakshana, O. and Schild, H. O. (Br. J. Pharmacol: 14, 48-58, 1959).

The target in series [2] is T1, longitudinal muscle from the intact ileum of guinea-pigs (response to histamine). To be noted: literature value, R. B. Barlow, Introduction to Chemical Pharmacology, 2nd ed., p. 357, 1964; cited from earlier work.
For series [3] the following is noted: clinical use, most patients; Goodman and Gilman, 4th ed., p. 640, 1970; cited from earlier work.

T1 sequence (P31389 whole entry): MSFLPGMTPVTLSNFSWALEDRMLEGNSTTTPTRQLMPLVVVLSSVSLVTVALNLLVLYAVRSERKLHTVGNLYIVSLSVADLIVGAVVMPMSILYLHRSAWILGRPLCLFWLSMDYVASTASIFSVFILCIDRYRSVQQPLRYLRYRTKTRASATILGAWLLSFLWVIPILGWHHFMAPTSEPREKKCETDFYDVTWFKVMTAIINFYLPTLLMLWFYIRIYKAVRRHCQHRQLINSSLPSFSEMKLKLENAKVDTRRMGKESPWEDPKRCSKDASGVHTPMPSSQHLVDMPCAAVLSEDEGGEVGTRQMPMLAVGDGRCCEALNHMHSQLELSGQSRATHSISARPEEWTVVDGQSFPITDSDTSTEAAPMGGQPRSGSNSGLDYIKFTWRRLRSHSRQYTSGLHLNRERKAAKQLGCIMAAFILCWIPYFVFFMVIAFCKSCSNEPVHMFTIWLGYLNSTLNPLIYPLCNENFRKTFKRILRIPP

In the case of `CN1CCN(C(c2ccc(Cl)cc2)c2ccccc2C(=O)O)CC1` (stereo not drawn) [C, 2-(4-Chloro-α-(4-methyl-1-piperazinyl)benzyl)benzoic acid], in series [1], the Kb was 2510 nM. Regarding `CC(C)(C)c1ccc(CN2CCN(C(c3ccc(Cl)cc3)c3cccc(OCC(=O)O)c3)CC2)cc1` (stereo not drawn) [H, 3-(4-Chloro-α-(4-(4-tert-butylbenzyl)-1-piperazinyl)benzyl)phenoxyacetic acid], the Kb in series [1] was 6.31 nM.

As to `CN1CCN(C(c2ccc(Cl)cc2)c2cccc(OCC(=O)O)c2)CC1` (stereo not drawn) [F, 3-(4-Chloro-α-(4-methyl-1-piperazinyl)benzyl)phenoxyacetic acid], in series [1], the Kb was 158 nM. Same read-out and setting: the same measure for `CN1CCN(C(c2ccc(Cl)cc2)c2cccc(/C=C/C(=O)O)c2)CC1` (stereo not drawn) [A, (E)-3-(4-Chloro-α-(4-methyl-1-piperazinyl)-benzyl)cinnamic acid]: 501 nM; for `CN1CCN(C(c2ccc(Cl)cc2)c2ccc(C(=O)O)cc2)CC1` (stereo not drawn) [D, 4-(4-Chloro-α-(4-methyl-1-piperazinyl)benzyl)benzoic acid]: 2510 nM; for `Cc1cccc(CN2CCN(C(c3ccc(Cl)cc3)c3cccc(OCC(=O)O)c3)CC2)c1` (stereo not drawn) [G, 3-(4-Chloro-α-(4-(3-methylbenzyl)-1-piperazinyl)benzyl)phenoxyacetic acid]: 1.58 nM. As to `CN1CCN(C(c2ccccc2)c2ccc(Cl)cc2)CC1` (stereo not shown) [Chlorcyclizine, 1-(4-Chlorobenzhydryl)-4-methylpiperazine], the pA2 in series [2] was 8.6. The sedation and drowsiness entry in series [3] was “produces sedation and drowsiness in varying degrees in most patients”. Turning to `CN1CCN(C(c2ccc(Cl)cc2)c2cccc(C(=O)O)c2)CC1` (stereo not drawn) [B, 3-(4-Chloro-α-(4-methyl-1-piperazinyl)benzyl)benzoic acid], the Kb in series [1] was 398 nM.

Regarding `COc1ccc(C(c2cccc(C(=O)O)c2)N2CCN(C)CC2)cc1` (stereo not drawn) [E, 3-(4-Methoxy-α-(4-methyl-1-piperazinyl)benzyl)benzoic acid], the Kb in series [1] is 316 nM.
